Experimental data taken from PMC9866191, “Novel 9-Benzylaminoacridine Derivatives as Dual Inhibitors of Phosphodiesterase 5 and Topoisomerase II for the Treatment of Colon Cancer” (Molecules, 2023).

Experiments:
Assay type in all cases: cell-based
[1] = tested on: NCI-H23; assay: NCI-60 one-dose screen; settings: Homo sapiens; NCI-H23, Non-small cell lung panel; single dose 10^−5 M; read-out: Growth inhibition %
[2] = tested on: A498; assay: NCI-60 one-dose screen; settings: Homo sapiens; A498, Renal Cancer panel; single dose 10^−5 M; read-out: Growth inhibition %
[3] = tested on: SF-539; assay: NCI-60 one-dose screen; settings: Homo sapiens; SF-539, CNS Cancer panel; single dose 10^−5 M; read-out: Growth inhibition %
[4] = tested on: HOP-62; assay: NCI-60 one-dose screen; settings: Homo sapiens; HOP-62, Non-small cell lung panel; single dose 10^−5 M; read-out: Growth inhibition %
[5] = tested on: NCI-H522; assay: NCI-60 one-dose screen; settings: Homo sapiens; NCI-H522, Non-small cell lung panel; single dose 10^−5 M; read-out: Growth inhibition %
[6] = tested on: OVCAR-8; assay: NCI-60 one-dose screen; settings: Homo sapiens; OVCAR-8, Ovarian Cancer panel; single dose 10^−5 M; read-out: Growth inhibition %
[7] = tested on: HOP-92; assay: NCI-60 one-dose screen; settings: Homo sapiens; HOP-92, Non-small cell lung panel; single dose 10^−5 M; read-out: Growth inhibition %
[8] = tested on: SN12C; assay: NCI-60 one-dose screen; settings: Homo sapiens, Renal Cancer panel, single dose 10^−5 M, read-out: Growth inhibition %
[9] = tested on: EKVX; assay: NCI-60 one-dose screen; settings: Homo sapiens, Non-small cell lung panel, single dose 10^−5 M, read-out: Growth inhibition %
[10] = tested on: OVCAR-4; assay: NCI-60 one-dose screen; settings: Homo sapiens; OVCAR-4, Ovarian Cancer panel; single dose 10^−5 M; read-out: Growth inhibition %
[11] = tested on: ACHN; assay: NCI-60 one-dose screen; settings: Homo sapiens, Renal Cancer panel, single dose 10^−5 M, read-out: Growth inhibition %
[12] = tested on: BT-549; assay: NCI-60 one-dose screen; settings: Homo sapiens; BT-549, Breast Cancer panel; single dose 10^−5 M; read-out: Growth inhibition %
[13] = tested on: RXF 393; assay: NCI-60 one-dose screen; settings: Homo sapiens; RXF 393, Renal Cancer panel; single dose 10^−5 M; read-out: Growth inhibition %
[14] = tested on: SK-OV-3; assay: NCI-60 one-dose screen; settings: Homo sapiens; SK-OV-3, Ovarian Cancer panel; single dose 10^−5 M; read-out: Growth inhibition %
[15] = tested on: HCT-116; assay: NCI-60 one-dose screen; settings: Homo sapiens, read-out: Growth inhibition %
[16] = tested on: MDA-MB-231/ATCC; assay: NCI-60 one-dose screen; settings: Homo sapiens, Breast Cancer panel, single dose 10^−5 M, read-out: Growth inhibition %
[17] = tested on: MOLT-4; assay: NCI-60 one-dose screen; settings: Homo sapiens; MOLT-4, Leukemia panel; single dose 10^−5 M; read-out: Growth inhibition %
[18] = tested on: SNB-75; assay: NCI-60 one-dose screen; settings: Homo sapiens; SNB-75, CNS Cancer panel; single dose 10^−5 M; read-out: Growth inhibition %
[19] = tested on: COLO 205; assay: NCI-60 one-dose screen; settings: Homo sapiens; COLO 205, Colon Cancer panel; single dose 10^−5 M; read-out: Growth inhibition %
[20] = tested on: K-562; assay: NCI-60 one-dose screen; settings: Homo sapiens, K562; K-562, Leukemia panel; single dose 10^−5 M; read-out: Growth inhibition %
[21] = tested on: UACC-257; assay: NCI-60 one-dose screen; settings: Homo sapiens; UACC-257, Melanoma panel; single dose 10^−5 M; read-out: Growth inhibition %
[22] = tested on: SK-MEL-5; assay: NCI-60 one-dose screen; settings: Homo sapiens; SK-MEL-5, Melanoma panel; single dose 10^−5 M; read-out: Growth inhibition %
[23] = tested on: U251; assay: NCI-60 one-dose screen; settings: Homo sapiens, U-251; U251, CNS Cancer panel; single dose 10^−5 M; read-out: Growth inhibition %
[24] = tested on: A549/ATCC; assay: NCI-60 one-dose screen; settings: Homo sapiens, Non-small cell lung panel, single dose 10^−5 M, read-out: Growth inhibition %
[25] = tested on: HCC-2998; assay: NCI-60 one-dose screen; settings: Homo sapiens; HCC-2998, Colon Cancer panel; single dose 10^−5 M; read-out: Growth inhibition %
[26] = tested on: NCI-H460; assay: NCI-60 one-dose screen; settings: Homo sapiens; NCI-H460, Non-small cell lung panel; single dose 10^−5 M; read-out: Growth inhibition %
[27] = tested on: NCI-H226; assay: NCI-60 one-dose screen; settings: Homo sapiens; NCI-H226, Non-small cell lung panel; single dose 10^−5 M; read-out: Growth inhibition %
[28] = tested on: SW-620; assay: NCI-60 one-dose screen; settings: Homo sapiens; SW-620, Colon Cancer panel; single dose 10^−5 M; read-out: Growth inhibition %
[29] = tested on: M14; assay: NCI-60 one-dose screen; settings: Homo sapiens; M14, Melanoma panel; single dose 10^−5 M; read-out: Growth inhibition %
[30] = tested on: UO-31; assay: NCI-60 one-dose screen; settings: Homo sapiens; UO-31, Renal Cancer panel; single dose 10^−5 M; read-out: Growth inhibition %
[31] = tested on: MALME-3M; assay: NCI-60 one-dose screen; settings: Homo sapiens, Melanoma panel, single dose 10^−5 M, read-out: Growth inhibition %
[32] = tested on: panel of 60 human tumor cell lines; assay: NCI 60-cell line one-dose screen (mean); settings: mean of the 60 cell lines, single dose 10^−5 M, read-out: Mean % Growth Inhibition
Procedure, shortened: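 Human tumour lines (NCI-60, 9 tissue origins) exposed to test compound at a fixed 10^−5 M; % inhibition determined by the NCI DTP.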

| SMILES | inhibition at 10 µM [1] [%] | inhibition at 10 µM [2] [%] | inhibition at 10 µM [3] [%] | inhibition at 10 µM [4] [%] | inhibition at 10 µM [5] [%] | inhibition at 10 µM [6] [%] | inhibition at 10 µM [7] [%] | inhibition at 10 µM [8] [%] | inhibition at 10 µM [9] [%] | inhibition at 10 µM [10] [%] | inhibition at 10 µM [11] [%] | inhibition at 10 µM [12] [%] | inhibition at 10 µM [13] [%] | inhibition at 10 µM [14] [%] | inhibition at 10 µM [15] [%] | inhibition at 10 µM [16] [%] | inhibition at 10 µM [17] [%] | inhibition at 10 µM [18] [%] | inhibition at 10 µM [19] [%] | inhibition at 10 µM [20] [%] | further results |
| --- | --- | --- | --- | --- | --- | --- | --- | --- | --- | --- | --- | --- | --- | --- | --- | --- | --- | --- | --- | --- | --- |
| Fc1ccccc1CNc1c2ccccc2nc2ccccc12 [Compound 8, Acridin-9-yl-(2-fluorobenzyl)-amine] | 55.9 | 89.1 | 68.9 | 47.5 | 34.2 | 68.9 | 77.3 | 60.4 | 38.3 | 60 | 76.9 | 15.1 | 51.2 | 49.1 | 86.1 | 46 | 82.7 | 28.3 | 84.9 | 85.8 | inhibition at 10 µM [21]: 41.2%; inhibition at 10 µM [22]: 39.3%; inhibition at 10 µM [23]: 53.1%; inhibition at 10 µM [24]: 65.9%; inhibition at 10 µM [25]: 52%; inhibition at 10 µM [26]: 86.5%; inhibition at 10 µM [27]: 43.6%; inhibition at 10 µM [28]: 71.5%; inhibition at 10 µM [29]: 46%; inhibition at 10 µM [30]: 72.3%; inhibition at 10 µM [31]: 55.3%; inhibition at 10 µM [32]: 56.5% |
| c1csc(-c2ccc(CNc3c4ccccc4nc4ccccc34)cc2)c1 [Compound 24, Acridin-9-yl-(4-thiophen-2-yl-benzyl)-amine] | 61.8 | 102 | 87.5 | 45.4 | 71.1 | 44.4 | 102 | 36.8 | 41 | 84.7 | 41.4 | 66.3 | 114 | 35 | 183 | 61.7 | 98 | 63.9 | 94.9 | 140 | inhibition at 10 µM [21]: 137%; inhibition at 10 µM [22]: 191%; inhibition at 10 µM [23]: 173%; inhibition at 10 µM [24]: 73.3%; inhibition at 10 µM [25]: 187%; inhibition at 10 µM [26]: 87.1%; inhibition at 10 µM [27]: 31%; inhibition at 10 µM [28]: 172%; inhibition at 10 µM [29]: 174%; inhibition at 10 µM [30]: 72%; inhibition at 10 µM [31]: 182%; inhibition at 10 µM [32]: 96.9% |
| Cc1ccc(CNc2c3ccccc3nc3ccccc23)cc1 [Compound 4, Acridin-9-yl-(4-methylbenzyl)-amine] | 70.7 | 92.4 | 81.9 | 56.4 | 51 | 78.2 | 96.8 | 75.1 | 62.1 | 75.5 | 86 | 28.7 | 89.7 | 53.1 | 88 | 56.8 | 95.7 | 58.3 | 99.7 | 97 | inhibition at 10 µM [21]: 60.6%; inhibition at 10 µM [22]: 69.9%; inhibition at 10 µM [23]: 74%; inhibition at 10 µM [24]: 74%; inhibition at 10 µM [25]: 103%; inhibition at 10 µM [26]: 91.2%; inhibition at 10 µM [27]: 58.5%; inhibition at 10 µM [28]: 79.8%; inhibition at 10 µM [29]: 72%; inhibition at 10 µM [30]: 88%; inhibition at 10 µM [31]: 83.8%; inhibition at 10 µM [32]: 74.8% |
| COc1ccc(CNc2c3ccccc3nc3ccccc23)cc1OC [Compound 18, Acridin-9-yl-(3,4-dimethoxybenzyl)-amine] | 84.9 | 112 | 84.7 | 65.5 | 81.8 | 76.2 | 110 | 77.5 | 84.8 | 78.6 | 95.9 | 57.9 | 96.4 | 58.9 | 87.8 | 80.6 | 89.4 | 75.2 | 94.7 | 91.2 | inhibition at 10 µM [21]: 77.9%; inhibition at 10 µM [22]: 82.5%; inhibition at 10 µM [23]: 76.8%; inhibition at 10 µM [24]: 83.7%; inhibition at 10 µM [25]: 69.9%; inhibition at 10 µM [26]: 93.8%; inhibition at 10 µM [27]: 72%; inhibition at 10 µM [28]: 84%; inhibition at 10 µM [29]: 82.3%; inhibition at 10 µM [30]: 87.9%; inhibition at 10 µM [31]: 92.1%; inhibition at 10 µM [32]: 81.6% |
